Measured values: patent publication USRE39682E1, “Farnesyl derivatives and pharmaceutical compositions containing them” (Ramot at Tel Aviv University Ltd., priority 1993, dated 2007)

Assays:
[1] = test system: Rat1 cells stimulated with EGF or bFGF; assay: Mitogenic effect of EGF and bFGF in Rat1 cells; format: cell-based, rat; conditions: 25 μM; for Number of cells (% of control): day 5
Method: The potent […] inhibitor FTS was used to examine selectivity of the drugs towards ras-dependent growth-signaling pathways. In these experiments cells transformed by Erb-B2, that acts upstream of ras in the ras pathway, and cells transformed by V-raf or by T-antigen, that act independently of ras, were studied. The cells were placed at a density of 2×10^3 cells/well and received on the day of plating either solvent (controls) or 25 μM FTS. Cells were counted on day 5 of the experiment. […] At this concentration, however, no effects of FTS on the growth of V-tar transformed or of T-antigen-transformed cells were observed. The results in Table VI also indicate that the mitogenic effect of bFGF and EGF in Rat1 cells is inhibited by FTS.

[2] = test system: Ha-ras transformed rat1 (EJ) cells; assay: Tumor growth in nude mice implanted with Ha-ras-transformed rat1 cells; format: in vivo, nude mice (CD1-Nu)
Method: Male nude mice (CD1—Nu) were obtained from the Weizmann Institute of Science, Rehovot, Israel. Groups of 5 to 8 mice (3-4 weeks old, 25±2 gr body weight) were used in each experiment for both; controls and FTS treatment. Cells (Ha-ras transformed rat1 (EJ) cells, 2×10^6 cells in 100 μl PBS) were injected systematically (s.c.). Cell implantation and drug administration began on the same day. The EJ cells were prepared from confluent cultures. Cells were detached with trypsin/EDTA, washed with DMEM/10% FCS followed by 3 times PBS washes. A suspension of 2×10^7 cells/ml was prepared and used for experiment within 15-30 min. of preparation.
FTS was prepared as a stock solution (0.225M) in ethanol. It was diluted just prior to the drug administration with PBS to yield a solution of 1.35 mM FTS, 0.6% ethanol. Under these conditions FTS remained in solution for the period of time required for administration.
Experimental mice received 100 μl of the FTS solution, respectively, daily or every other day. Controls received the appropriate administration of 0.6% ethanol in PBS. Tumor growth was monitored by daily observations and by size measurement using a millimetric caliper (two dimensions of the tumor size were taken usually twice a week).
Data were expressed in terms of tumor size (cm^2) in each mouse as a function of time.
Ha-ras transformed rat1 cells (2×10^6) were implanted beneath the skin of the right hind leg of nude mice. The mice received a systemic s.c. injection of either the solvent (0.6% ethanol in PBS) or FTS, starting on the day of cell implantations. Two sets of experiments were performed. In the one set the mice received 3.6 mg/kg FTS daily. Tumors sizes measured every 3-4 days beginning on day 10 of the experiment. […] Out of the 8 control mice, 6 developed tumors having a size of 4 cm^2 or greater and 2 developed tumors of 2 cm^2 or less. In another set of experiments mice received 1.6 mg/kg FTS every other day.

CC(C)=CCC/C(C)=C/CC/C(C)=C/CSc1ccccc1C(=O)O [FTS, (3,7,11-trimethyl-dodeca-2,6,10-trienyl)-2-thiobenzoic acid]
effect on the mitogenic effect of bFGF and EGF in Rat1 cells [1]: inhibited
Number of cells (% of control) ([1]; Ras1 + 10 mg/ml ECP): 40 ± 5 % of control
Number of cells (% of control) ([1]; Ras1 + 50 mg/ml bPCP): 42 ± 3 % of control
effect on tumor growth ([2]; 1.6 mg/kg every other day, FIG. 13): inhibitory effects
mice out of 8 that developed tumors of 2 cm2 or less ([2]; 3.6 mg/kg daily, systemic s.c.): 6
mice out of 8 that developed tumors of greater than 4 cm2 ([2]; 3.6 mg/kg daily, systemic s.c.): 2
effect on tumor growth ([2]; 3.6 mg/kg daily, systemic s.c., FIG. 12): profound inhibition of tumor growth
